The source of these data is patent US20240076327A1 (priority 2020, published 2024).

Where a SMILES comes first, the peptide text is derived from it. Bridges are numbered along the chain shown (N, C = ends). Where no end group is shown, it is not given here.

For data set [1] the following is noted: buffer, 0 h, pH 9.
Data set [2] can be described thus: physchem. The conditions noted are these: buffer, pH 9.

For orientation: share remaining means what is left of the initial amount, in per cent. As for “GSQYCVPVDQPCSLNTQPCCDDATCTQERNENGHTVYYCRA (disulfide 5-20, 12-25, 19-39) [GS-ω/κ-hexatoxin-Hv1h]”, in data set [1], the “observed overall stability (percentage of remaining parent peak)” value was 100%. In data set [2], the share remaining at 24 h was determined as 94%, the fraction remaining at 48 h turned out to be 91%, the amount remaining at 72 h came to 82% and the fraction remaining at 96 h was determined as 83%. Also, in data set [2], the fraction remaining at 120 h was found to be 83%, the amount remaining at 144 h came out at 81%, the amount remaining at 168 h stood at 69% and the fraction remaining at 360 h is 50%.

As for `CC[C@H](C)[C@H](NC(=O)[C@H](C)N)C(=O)N[C@H]1CSSC[C@@H]2NC(=O)[C@@H]3CSSC[C@@H](C(=O)N[C@@H](CCCNC(=N)N)C(=O)N[C@@H](CCCCN)C(=O)N[C@@H](CC(=O)O)C(=O)N[C@@H](CCC(=O)O)C(=O)N4CCC[C@H]4C(=O)O)NC(=O)[C@H](Cc4ccc(O)cc4)NC(=O)[C@H](CO)NC(=O)[C@H](C(C)C)NC(=O)CNC(=O)[C@H](CC(N)=O)NC(=O)[C@H](CO)NC(=O)[C@H](CCC(=O)O)NC(=O)[C@H](C)NC(=O)[C@H](CCCCN)NC(=O)[C@H](CSSC[C@H](NC(=O)[C@@H]4CCCN4C(=O)[C@H](CCCNC(=N)N)NC(=O)[C@H](CC(=O)O)NC(=O)[C@H](C)NC(=O)CNC(=O)[C@H]([C@@H](C)O)NC1=O)C(=O)N[C@@H](C)C(=O)N[C@@H](C)C(=O)N[C@H]1CSSC[C@H](NC1=O)C(=O)N1CCC[C@H]1C(=O)N3)NC(=O)[C@H](CO)NC(=O)[C@H]([C@@H](C)O)NC(=O)CNC(=O)[C@@H]1CCCN1C2=O` [κ-hexatoxin-Hv1c] (H-AICTGADRPCAACCPCCPGTSCKAESNGVSYCRKDEP-OH; disulfide 3-17, 10-22, 13-14, 16-32), the “observed overall stability (percentage of remaining parent peak)” value in data set [1] is given as 100%. Also, in data set [2], the share remaining at 24 h turned out to be 91%, the amount remaining at 48 h is 80%, the amount remaining at 72 h is 75% and the amount remaining at 96 h stood at 61%. Moreover, in data set [2], the share remaining at 120 h worked out at 51%, the share remaining at 144 h amounted to 41%, the fraction remaining at 168 h was found to be 30% and the amount remaining at 360 h is 9%.
